Series [1] can be described thus: Trypanosoma cruzi growth suppression in host cells – NIH3T3 host cells, beta-gal luminescence, confirmation (AID 2044).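 Further: intracellular parasites grown in NIH/3T3 mouse fibroblasts as host cells; luminescent beta-galactosidase reporter signal from transgenic T. cruzi replicating inside host cells; inhibitors lower the luminescence signal.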 Type of series: functional, cell-based.
A short description of series [2]: NIH3T3 cell viability loss – ATP luminescence, mouse fibroblasts, counter-screen, dose response (AID 2010).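 Further: cells exposed to compound for about 90 hours before reading.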 In kind it is functional, cell-based. On the technique in general: The purpose of a counterscreen is to sort out artefacts and off-target activity.
A further series deals with Cytochrome P450 2C19 (Homo sapiens, UniProt P33261). The experiment in a line: Cytochrome panel assay with activity outcomes. Panel member name: p450-cyp2c19 Compounds with AC50 equal or less than 10 uM are considered active. In kind it is functional.
Cytochrome P450 2C19, sequence (P33261 whole entry): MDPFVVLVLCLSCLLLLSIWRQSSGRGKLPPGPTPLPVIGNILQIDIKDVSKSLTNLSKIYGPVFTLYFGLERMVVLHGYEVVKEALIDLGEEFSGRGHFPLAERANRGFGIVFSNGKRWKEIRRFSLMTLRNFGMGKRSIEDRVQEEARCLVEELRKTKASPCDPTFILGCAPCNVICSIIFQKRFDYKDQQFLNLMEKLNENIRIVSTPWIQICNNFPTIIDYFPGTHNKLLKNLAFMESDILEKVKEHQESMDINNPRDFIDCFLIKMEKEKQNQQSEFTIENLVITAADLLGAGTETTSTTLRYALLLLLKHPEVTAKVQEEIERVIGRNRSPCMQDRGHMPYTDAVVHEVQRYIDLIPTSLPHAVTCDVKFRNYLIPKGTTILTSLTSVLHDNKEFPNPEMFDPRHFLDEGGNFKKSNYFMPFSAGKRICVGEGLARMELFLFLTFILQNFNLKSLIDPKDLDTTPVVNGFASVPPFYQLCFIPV

Activity calls are given as the source filed them. A value given as a limit tells only on which side of the number the result lay.

In ChEMBL document CHEMBL1201862, “PubChem BioAssay data set” (2004) one finds EC50 and AC50 data, which are given here for 22 compounds.

The term EC50 denotes the concentration at which the effect is half-maximal. In general, AC50 refers to the concentration at which the activity in the assay is half-maximal.

On to `CCOCCCNCc1ccc(OCCC(C)C)c(OC)c1`, for which the EC50 in series [1] was 0.17 µM (active); in series [2], > 60 µM (not active).
For the compound `Cc1ccc(CNC(=O)[C@H]2C[C@@H]2[C@H](NP(=O)(c2ccccc2)c2ccccc2)c2ccccc2)c(F)c1F`, the concentration at half-maximal activity (AC50) on Cytochrome P450 2C19 (read-out: AC50) was 0.0398 µM (inconclusive).
Regarding `C=CCNc1nc(Cl)nc(Nc2ccc(OC)cc2)n1`, the concentration at half-maximal activity (AC50) on Cytochrome P450 2C19 (read-out: AC50) was 0.224 µM (inconclusive).
`O=C(CCN1C(=O)C2C3C=CC(C3)C2C1=O)Nc1c(F)cccc1F` (stereo not drawn): the concentration at half-maximal activity (AC50) at Cytochrome P450 2C19 (read-out: AC50) is 39.8 µM (inconclusive).
For the compound `CC(=O)Nc1ccc(OCC(O)Cn2c3ccccc3c3ccccc32)c(C)c1` (stereo not drawn), the EC50 is 2.11 µM (active) in series [1] and 9.57 µM (active) in series [2].
In the case of `CN1C(=O)C(C2c3ccccc3C(=O)N2Cc2ccc([N+](=O)[O-])cc2)C(=O)N(C)C1=O` (stereo not drawn), at Cytochrome P450 2C19 (read-out: AC50), the concentration at half-maximal activity (AC50) is 14.1 µM (inconclusive).
Turning to `O=C(NCC1CCCC(CNC(=O)Nc2ccc(Cl)cn2)C1)Nc1ccc(Cl)cn1` (stereo not drawn), the EC50 in series [1] is 1.18 µM (active); in series [2], > 60 µM (not active).
For `CC12CN3CC(C)(CN(C1)C3c1ccc([N+](=O)[O-])o1)C2=O` (stereo not drawn), the values for the concentration for a half-maximal effect (EC50) in series [1] and in series [2] were 0.784 µM (active) and > 60 µM (not active), respectively.
Turning to `COc1ccc(NS(=O)(=O)c2cccc(C(=O)NC3CCN(Cc4ccccc4)CC3)c2)cc1`, the EC50 is 0.318 µM (active) in series [1] and > 30 µM (not active) in series [2].
`N#CCCn1c(=O)cnc2cnc(N3CCOCC3)nc21`: the half-maximal activity concentration (AC50) entry on Cytochrome P450 2C19 is “inconclusive”.
Turning to `N#Cc1cccc(-c2ccc3ncnc(NC4CCNCC4)c3c2)c1`, the AC50 on Cytochrome P450 2C19 (read-out: AC50) is 25.1 µM (inconclusive).
`COc1ccc(C)cc1NC(=O)c1ccc([N+](=O)[O-])cc1[N+](=O)[O-]`: the EC50 was 1.18 µM (active) in series [1] and > 60 µM (not active) in series [2].
As for `COC(=O)c1c(-c2cc(OC)c(OC)c(OC)c2)c2ccc(OCc3ccccn3)cc2c(=O)n1-c1ccc(N)cc1`, the concentration at half-maximal activity (AC50) at Cytochrome P450 2C19 (read-out: AC50) was 10 µM (inconclusive).
In the case of `COc1ccc(C(CCN)Cc2ccccc2)cc1` (stereo not drawn), in series [2], the concentration for a half-maximal effect (EC50) is on record as > 30 µM (not active).
As for `O=C(NC1CCN(Cc2ccccc2)CC1)c1ccc(Cn2c(=S)[nH]c3ccc(N4CCOCC4)cc3c2=O)cc1`, the figures for the concentration for a half-maximal effect (EC50) in series [1] and in series [2] were 1.3 µM (active) and 10.4 µM (active), respectively.
In the case of `N#CCCn1c(=O)cnc2cnc(OCc3ccccc3)nc21`, the concentration at half-maximal activity (AC50) result at Cytochrome P450 2C19 was “inconclusive”.
`CN(C)CCCN(C(=O)/C=C/c1cccs1)c1nc2c(F)cccc2s1`: the EC50 was 1.86 µM (active) in series [1] and > 60 µM (not active) in series [2].
As for `COC(=O)[C@@]1(Cc2ccccc2)[C@H]2c3cc(C(=O)N4CCCC4)n(CCO)c3C[C@H]2CN1C(=O)c1ccccc1`, the half-maximal activity concentration (AC50) at Cytochrome P450 2C19 (read-out: AC50) was 0.00794 µM (inconclusive).
Regarding `CCN1CCN(c2ccc(S(=O)(=O)N3CCCCC3)cc2NC(=O)c2cc3ccccc3o2)CC1`, the EC50 in series [1] is 0.31 µM (active); in series [2] it was > 30 µM (not active).
The like results for `CN(C)CCCN(C(=O)COc1ccc(Cl)cc1)c1nc2c(F)cccc2s1` were, in that order, 0.128 µM (active) and > 60 µM (inconclusive).
On to `COc1ccccc1-c1nc(NCc2ccccc2)c2ccccc2n1`, for which, at Cytochrome P450 2C19 (read-out: AC50), the concentration at half-maximal activity (AC50) is 25.1 µM (inconclusive).
Regarding `COc1cccc(Nc2nc(N)nc(CCl)n2)c1`, the EC50 was 1.7 µM (active) in series [1] and 4.11 µM (active) in series [2].
